Laboratory results reported in patent US20040006042A1, “Diaminopyrimidines and combination therapies effective for treatment of P-glycoprotein positive cancers” (priority 1998, published 2004).
≈ marks a conversion by molar mass, not a printed value. Where two headings read alike, the source gives them in different places.

Assays:
P388/ADR leukemia = assay: In vivo P388/ADR leukemia life span study; parameters: species or system CD2F1 mice; conditions: for P388/ADR T/C: maximum tolerated dose, i.p. Days 3-11 (Adriamycin Days 3, 7, 11), >130 = antitumor effect
[1] = tested on: Colon 26/clone 10 (C26/10); assay: Colon 26/clone 10 i.p. life span study; assay type: in vivo, CD2F1 mice; conditions: for C26 ip T/C: i.p. implant, treated i.p. Days 3-7 and 10-14 (Adriamycin Days 5, 9, 13), >130 = antitumor effect
Protocol: (§1) To test compounds of the present invention in vivo, the following methodology was used. P388 leukemia and its Adriamycin resistant subline, P388/ADR were passed weekly in DBA/2 mice as i.p. implants of 10^5 and 10^6 cells, respectively. Animals bearing P388/ADR passage were treated with 7 mg/kg Adriamycin on Day 3 post-implant as a resistance selection pressure. C26/clone 10 was passed every 2 weeks into Balb/c mice as tumor fragments (approximately 30 mg) which were obtained from tumors 1 g in mass.
Colon 26/clone 10 (C26/10) life span studies were conducted in CD2F1 mice. C26/C10 cells were implanted i.p. on Day 0. Animals were treated i.p. with test agents in the vehicles described above on Days 3-7 and 10-14. Adriamycin was dosed i.p. in saline on Days 5, 9, and 13. […] Percent T/C values in excess of 130 are indicative of an antitumor effect in this model.

colon cancer = conditions: cited from earlier work
P388 leukemia = assay: In vivo P388 leukemia life span study; parameters: species or system CD2F1 mice; conditions: maximum tolerated dose, i.p. Days 3-11 (Adriamycin Days 3, 7, 11); >130 = antitumor effect
[2] = tested on: C26 murine colon tumor cells; assay: Combination of antifolates with FU and LV on C26 proliferation; assay type: cell-based
P388S cells = assay: In vitro growth inhibition of P388S cells; assay type: cell-based; conditions: Mus musculus, P388/S; in vitro; read-out: P388S IC50
P388/ADR cells [3] = assay: In vitro growth inhibition of P388/ADR cells; assay type: cell-based, murine; conditions: for IC50: Mus musculus, P388/ADR, in vitro; for R/S: ratio resistant (P388/ADR) to sensitive (P388S) IC50
[4] = tested on: P388 murine leukemia cells; assay: Combination of antifolates with FU and LV on P388 proliferation; assay type: cell-based; conditions: for Antifol + FU / Antifol + LV / Antifol + LV + FU: antifolate 1.0 nM 24 hours; for Antifol + FU / Antifol + LV + FU: 5 μM FU final 4 hours; for Antifol + LV / Antifol + LV + FU: LV 10 μM final 4.5 hours; for Antifol: antifolate 1.0 nM, 24 hours
P388/ADR cells [5] = assay: Combination of antifolates with FU and LV on P388/ADR proliferation; assay type: cell-based, murine
[6] = tested on: HT29 human colon adenocarcinoma cells; assay: Combination of antifolates with FU and LV on HT-29 proliferation (sulphorhodamine B); conditions: for Antifol: antifolate 62.5 nM, 24 hours
C26/10 tumor = assay: C26/10 s.c. tumor growth delay study; assay type: in vivo, CD2F1 mice; conditions: tumor growth delay to 750 mg, s.c. implant, treated i.p. Days 3-7 and 10-14; >5 to 6 days = antitumor effect
Protocol: as §1
For the tumor growth delay studies with C26/10, CD2F1 mice were implanted s.c. with 30 mg tumor fragments in the region of the right axilla with the aid of a trocar on Day 0. Animals were treated i.p. with test agents in the vehicles described above on Days 3-7 and 10-14. Adriamycin was dosed i.p. in saline on Days 5, 9, and 13. Tumors in the treated and control groups were measured twice weekly in two perpendicular dimensions and tumor mass calculated according to the formula: mass (mg)=(a×b^2)/2 where “b” is the smallest tumor dimension and “a” is the largest. Calculations of tumor growth delay, defined as the median time (in days) for the treated tumors to reach 750 mg in size minus the median time (in days) for the control tumors to reach 750 mg in size, were as described previously (Schabel, 1977; Leopold, 1985; Elliot, 1984). Growth delays in excess of 5 to 6 days in the C26/10 model are considered to be an antitumor effect.

[7] = tested on: HT29 human colon adenocarcinoma cells
dihydrofolate reductase = biological target: T1, dihydrofolate reductase (Homo sapiens, UniProt P00374); assay: Inhibition of dihydrofolate reductase (Table 1); assay type: biochemical
T1 sequence (P00374 1-187): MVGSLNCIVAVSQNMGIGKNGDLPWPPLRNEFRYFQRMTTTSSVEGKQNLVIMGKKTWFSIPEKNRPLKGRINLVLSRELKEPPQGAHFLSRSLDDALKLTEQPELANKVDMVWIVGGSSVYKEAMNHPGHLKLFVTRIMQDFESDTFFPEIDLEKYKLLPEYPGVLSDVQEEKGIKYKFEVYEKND

[8] = in words, TMQ at a concentration 10-fold higher than the other antifolates
[9] = antifolate 62.5 nM 24 hours, LV 10 μM final 4.5 hours

SMILES	P388/ADR T/C (P388/ADR leukemia)	C26 ip T/C [1]	P388S T/C (P388 leukemia)	IC50 (P388S cells)	IC50 (P388/ADR cells [3])	R/S (P388/ADR cells [3])	Antifol + FU [4]	Antifol + LV [4]	Antifol + LV + FU [4]	Antifol [4]	Antifol + LV [6, 9]	Antifol [6]	C26 sc T-C (C26/10 tumor)	other results
COc1cc(NCc2ccc3nc(N)nc(N)c3c2C)cc(OC)c1OC [Trimetrexate, reference compound]	113%	119%	164%	0.0069 µg/mL (≈ 0.0187 µM)	0.152 µg/mL (≈ 0.411 µM)	22	12% of control	85% of control	9% of control	80% of control	77% of control	75% of control	6.8 days	activity against P388/ADR tumors in vivo (P388/ADR leukemia; in words): inactive; activity against C26 colon tumor in vivo ([1]; in words, T/C×100>130 represents in vivo antitumor activity): without activity; response rate (colon cancer; TMQ added to LV/FU, colon cancer patients previously treated with FU): 20%; response rate (colon cancer; combination of TMQ, FU and LV, metastatic colorectal cancer patients): 50%; Antifol + FU ([2]; C26, antifolate 0.125 μM 24 hours, 5 μM FU final 4 hours): 65% of Control; Antifol + LV ([2]; C26, antifolate 0.125 μM 24 hours, LV 10 μM final 4.5 hours): 98% of Control; Antifol + FU + LV ([2]; C26, antifolate 0.125 μM 24 hours, LV 10 μM final 4.5 hours, 5 μM FU final 4 hours): 64% of Control; Antifol ([2]; C26, antifolate 0.125 μM, 24 hours): 101% of Control; effect on C26 proliferation alone ([2]; in words, 0.125 μM): no effect; synergy with FU and/or LV on C26 cells ([2]; in words, 0.125 μM): no significant synergy; Antifol + FU (P388/ADR cells [5]; P388/ADR, TMQ 10 nM 24 hours, 5 μM FU final 4 hours): 83% of control; Antifol + LV (P388/ADR cells [5]; P388/ADR, TMQ 10 nM 24 hours, LV 10 μM final 4.5 hours): 100% of control; Antifol + LV + FU (P388/ADR cells [5]; P388/ADR, TMQ 10 nM 24 hours, LV 10 μM final 4.5 hours, 5 μM FU final 4 hours): 76% of control; Antifol (P388/ADR cells [5]; P388/ADR, TMQ 10 nM, 24 hours): 92% of control; activity alone against P388/ADR cells (P388/ADR cells [5]; [8]): little activity alone; increase in activity by addition of FU or LV, P388/ADR cells (P388/ADR cells [5]; [8]): nor was a significant increase in activity observed; Antifol + FU ([6]; antifolate 62.5 nM 24 hours, 5 μM FU final 4 hours): 35% of control; Antifol + LV + FU ([6]; antifolate 62.5 nM 24 hours, LV 10 μM final 4.5 hours, 5 μM FU final 4 hours): 30% of control
CC(=O)c1ccc(N2CCN(c3c(C)nc(N)nc3N)CC2)cc1 [D, 1-{4-[4-(2,4-Diamino-6-methyl-pyrimidin-5-yl)-piperazin-1-yl]-phenyl}-ethanone]	180%	171%	182%	0.01 µg/mL (≈ 0.0306 µM)	0.01 µg/mL (≈ 0.0306 µM)	1	10% of control	110% of control	5% of control	70% of control	90% of control	92% of control	17.3 days	Antifol + FU [7]: 50% of control; Antifol + LV + FU [7]: 42% of control; Ki (dihydrofolate reductase): 0.131 nM
